Assay results: paper PMC6934184, “Selective DNA-PKcs inhibition extends the therapeutic index of localized radiotherapy and chemotherapy” (The Journal of Clinical Investigation, 2019)

Target: T1, MAPK10 (JNK3) (Homo sapiens, UniProt P53779)
T1 construct: purchased Thermo Fisher Scientific (Life Technologies) SelectScreen
Test: SelectScreen Z'LYTE
Type: biochemical
Details: ATP 100 µM
How it was run: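 SelectScreen broad panel; activity (Z'LYTE, Adapta) plus binding formats. ATP: Km app for CSF1R Z'LYTE; 10 for CAMK1 Adapta. Readout = % per kinase.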

T1 sequence (P53779 whole entry): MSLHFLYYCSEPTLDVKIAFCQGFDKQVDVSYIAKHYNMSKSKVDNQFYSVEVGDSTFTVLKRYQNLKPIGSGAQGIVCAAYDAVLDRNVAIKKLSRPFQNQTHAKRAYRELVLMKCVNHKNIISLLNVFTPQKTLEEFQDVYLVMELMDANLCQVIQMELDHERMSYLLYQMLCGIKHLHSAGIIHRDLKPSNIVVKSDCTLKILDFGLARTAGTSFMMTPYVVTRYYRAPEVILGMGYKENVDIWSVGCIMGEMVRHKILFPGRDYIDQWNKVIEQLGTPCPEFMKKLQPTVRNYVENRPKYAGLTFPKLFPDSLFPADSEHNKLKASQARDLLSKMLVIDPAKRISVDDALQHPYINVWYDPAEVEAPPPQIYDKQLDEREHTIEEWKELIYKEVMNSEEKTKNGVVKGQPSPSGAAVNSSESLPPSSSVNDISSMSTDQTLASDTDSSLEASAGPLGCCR

## CN(C(=O)CN1CCOCC1)c1ccc2sc3c(-c4cccc5c(=O)cc(N6CC7CCC(C6)O7)oc45)cccc3c2c1 [NU5455]
  inhibition at 1 µM: 9%
